Square brackets hold non-standard residues; d marks the D form. Peptide text beside a SMILES is read from it. * marks the point of attachment. Nle = CCCC[C@H](N)C(=O)O; Cbz = O=C(OCc1ccccc1)*
Key:
[1] = system: p62+/+ and p62-/- mouse embryo fibroblast (MEF); assay: Cell viability by MTT assay after glutathione depletion; assay type: cell-based; settings: different concentrations of DEM or BSO; p62-null versus wild type MEFs
Protocol: (§1) FIGS. 44A-44B show effects of glutathione depletion on cell viability in p62+/+ and p62−/− mouse embryo fibroblast (MEF). Cell viability was assessed with a methylthiazolium (MTT) assay, which measures mitochondrial dehydrogenase activity of viable cells spectrophotometrically. MEF (3×10^3 cells/well) in 96-well plates were treated with different concentrations of DEM (A) or BSO (B) washed with PBS and then incubated with 0.5 mg/ml MTT in PBS for 4 h. To solubilize the formazan products, […] DMSO was added. The absorption values at 570 nm were determined.
as §1, with “In addition to the above, FIGS.” for “FIGS.”, “determined. […] This death of p62-null MEFs is an apoptotic process (FIG. 48). Thus, p62 appears to have the function of regulating cellular redox status and/or cellular reactive oxygen species (ROS) generation and scavenging systems.” for “determined.”

[2] = system: mouse embryonic fibroblasts (MEFs); assay: Ubiquitin-positive inclusion formation in MEFs; assay type: cell-based; parameters: dose or concentration left out as unconfirmed; settings: 12 hours
Description: FIGS. 37A-37B show p62 aggregates formed in MEF in the presence of GSH-depletor. […] Bar=10 μm.
Ubiquitin-p62 inclusion is formed in mouse embryonic fibroblasts. […] MEFs from p62 null embryos were transfected with a p62 expression vector.
Further, p62-positive intracellular inclusion are also formed by oxidative stress. For instance, FIGS. 37A-37B show the formation of p62- or ubiquitin-positive aggregates in MEF in the presence of glutathione (GSH) depletory, diethylmaleate (DEM). […] Thus, p62 has a function to collect misfolded and/or ubiquitinated intracellular proteins and make intracellular inclusions.

[3] = system: p62 gene; assay: Activation of the p62 gene, immunoblot and RNA analysis; assay type: cell-based; settings: COS7 cells, 20 mM LLnL, with or without actinomycin D
Description: Equivalent loading was confirmed by anti-beta-actin immunoblotting. […] Equivalent loading of RNA was confirmed by staining 28S and 18S ribosomal RNA with ethidium bromide (lower panel).

[4] = system: HEK 293 cells; assay: Colocalization of p62 with multi-ubiquitin chain; assay type: cell-based; settings: increasing concentrations of LLnL, 16 hours
[5] = system: COS7 cells; assay: Sequestosome (p62 inclusion) formation, anti-p62 immunostaining; parameters: p62 accumulation in sequestosome / cellular inclusion formation in the presence of translational inhibitor: dose or concentration left out as unconfirmed; settings: 12 hours; for formation of sequestosome: 20 mM ALLN, 5 mM lactacystin, 10 mM MG 132, 50 nM epoxomicin
[6] = system: COS7 cells; assay: p62 level in triton X-100 soluble and insoluble fractions, immunoblot; assay type: cell-based; parameters: dose or concentration left out as unconfirmed; settings: plus cycloheximide

Compound: CCCCS(=N)(=O)CCC(N)C(=O)O (stereo not shown) [BSO, buthioninesulfoximine]
- cell viability (MTT) on glutathione depletion [1]: p62-null MEFs die more readily compared with wild type MEFs

Compound: CCCC[C@@H](C=O)NC(=O)[C@H](CC(C)C)NC(=O)[C@H](CC(C)C)NC(C)=O [LLnL] (Ac-Leu-Leu-[Nle]-aldehyde)
- ubiquitin-positive inclusion formation, p62-heterozygote MEF [2]: can form the inclusion but less efficiently
- ubiquitin-positive inclusion formation, p62-null MEF [2]: cannot form the inclusion at all
- ubiquitin-positive inclusion formation, p62 wild type MEF [2]: formed ubiquitin-positive inclusions well
- p62 gene activation / p62 level [3]: activation of the p62 gene
- colocalization of p62 with multi-ubiquitin chain [4]: colocalization of p62 with multi-ubiquitin chain
- p62 accumulation in sequestosome [5]: p62 accumulates in sequestosome
- formation of sequestosome [5]: can induce formation of sequestosome

Compound: CC(C)C[C@@H](C=O)NC(=O)[C@H](CC(C)C)NC(=O)[C@H](CC(C)C)NC(=O)OCc1ccccc1 [MG 132] (Cbz-Leu-Leu-Leu-aldehyde)
- formation of sequestosome [5]: can induce formation of sequestosome

Compound: C[C@@H]1C[C@@H]([C@H](O)CC2CC(=O)NC(=O)C2)C(=O)[C@@H](C)C1 [cycloheximide]
- p62 cellular level [6]: not increased
- cellular inclusion formation in the presence of translational inhibitor ([5]; plus cycloheximide): not formed

Compound: CC[C@H](C)[C@H](NC(=O)[C@H]([C@@H](C)CC)N(C)C(C)=O)C(=O)N[C@H](C(=O)N[C@@H](CC(C)C)C(=O)[C@@]1(C)CO1)[C@@H](C)O [epoxomicin]
- formation of sequestosome [5]: can induce formation of sequestosome

Compound: CC(=O)N[C@@H](CSC(=O)[C@]1([C@@H](O)C(C)C)NC(=O)[C@H](C)[C@@H]1O)C(=O)O [lactacystin]
- formation of sequestosome [5]: can induce formation of sequestosome

Source: patent US7435872B2, “Role of p62 in aging-related disease” (Samsung Electronics, Co., Ltd., priority 2002, dated 2008)
